Source: patent US20100316529A1, “Anti-Microbial Systems and Methods” (priority 2001, published 2010)
Where “and” joins values, the source holds several entries; their conditions need not be identical. Equal entries are not always repeated.

Experiments:
Type in all cases: cell-based
C. tropicalis = experiment: EDTA agar dilution method, yeasts, MIC/MBC; details: Exhibit C
Procedure: (§1) The bactericidal effects were measured as the Minimum Bactericidal Concentration (MBC), while the inhibitory effects were measured as the Minimum Inhibitory Concentration (MIC). In each case, the concentration was measured as milligrams of the disinfectant salt per milliliter of water (mg/ml).
(§2) Protocol 3: Agar dilutions.
(§3) Prepare nutrient agar plates with increasing concentrations of EDTA, 0, 0.5, 1, 1.5, 2, 4, 6, 8, 10, 15, 20, 25, 30 mg/mL, using the following method. • Pour 300 mL distilled water into a sterile glass bottle. • Add the appropriate amount of EDTA. This is the concentration desired ×300, in grams. • Once the EDTA has fully dissolved, add 8.4 g of Nutrient agar powder (Oxoid). Mix thoroughly. • Do this for each concentration of EDTA required. […] Do this until all the media is used up. Label the plates with the concentration of EDTA they contain. • These plates can then be stored, until they are needed, in a 4° C. fridge. • Use an automatic plate inoculator to inoculate each plate with 21 organisms.

C. guilliermondii = experiment: EDTA agar dilution method, yeasts, MIC/MBC; details: Exhibit C
Procedure: as §1, §2, §3

C. parapsilosis = experiment: EDTA agar dilution method, yeasts, MIC/MBC; details: Exhibit C
Procedure: as §1, §2, §3

C. glabrata = experiment: EDTA agar dilution method, yeasts, MIC/MBC; details: two entries, Exhibit C
Procedure: as §1, §2, §3

C. albicans = experiment: EDTA agar dilution method, yeasts, MIC/MBC; details: three entries, Exhibit C
Procedure: as §1, §2, §3

Cornyeform amycolatum = experiment: EDTA salt dilution test, MIC/MBC
Acinetobacter baumanii = experiment: EDTA salt dilution test, MIC/MBC; details: two entries, Exhibit A2
Kleb. ornitholytica = experiment: EDTA salt dilution test, MIC/MBC
Proteus vulgaris = experiment: EDTA salt dilution test, MIC/MBC
Coryneform strait/amy = experiment: EDTA salt dilution test, MIC/MBC
Ent. faeculm = experiment: EDTA salt dilution test, MIC/MBC
Steno. maltophilia = experiment: EDTA salt dilution test, MIC/MBC
S. xylosus = experiment: EDTA salt dilution test, MIC/MBC
Procedure: (§4) Protocol one: Broth dilutions:
(§5) Inoculate a 25 ml nutrient broth (Oxoid No2) in a sterile universal container with one of the following organisms; Pseudomonas aeruginosa, Proteus Mirabilis, E. coli, Klebsiella pneumoniae, Staph aureus, Coagulase negative staphylococci, Enterococcus faecalis or MRSA.
(§6) Incubate the broth at 37° C. overnight.
(§7) To make these concentrations put the EDTA needed for 10 mLs in only 9 mLs of broth in sterile universal containers, as this will be diluted further when the organisms are added.
(§8) Dilute the overnight broth cultures to 10^7 organisms/mL using more sterile nutrient broth.
(§9) Add 1 mL of this diluent to each of the EDTA series broths. This gives a final concentration of 10^6 organism/mL in the EDTA broths.
(§10) Incubate for 18 hours at 37° C.
(§11) Next day visually read the MIC's by observing the turbidity of the broths.
(§12) Plate out 1 uL of each dilution onto fresh blood agar plate and spread using a sterile plastic spreader.
(§13) Incubate overnight at 37° C.
(§14) Next day read the MBC's by performing colony counts.

Proteus mirabilis = experiment: EDTA salt dilution test, MIC/MBC; details: two entries
Procedure: as §4, §5, §6, §7, §8, §9, §10, §11, §12, §13, §14

E. coli = experiment: EDTA salt dilution test, MIC/MBC; details: three entries, Exhibit A1
Procedure: as §4, §5, §6, §7, §8, §9, §10, §11, §12, §13, §14

MRSA = experiment: EDTA salt dilution test, MIC/MBC; details: five entries, Exhibit A2
Procedure: as §4, §5, §6, §7, §8, §9, §10, §11, §12, §13, §14

S. simulans = experiment: EDTA salt dilution test, MIC/MBC
Procedure: as §4, §5, §6, §7, §8, §9, §10, §11, §12, §13, §14

Kleb. pnemoniae = experiment: EDTA salt dilution test, MIC/MBC; details: two entries, Exhibit A1
Procedure: as §4, §5, §6, §7, §8, §9, §10, §11, §12, §13, §14

Ent. faecalis = experiment: EDTA salt dilution test, MIC/MBC
Procedure: as §4, §5, §6, §7, §8, §9, §10, §11, §12, §13, §14

Pseudomonas sp. = experiment: EDTA salt dilution test, MIC/MBC
Procedure: as §4, §5, §6, §7, §8, §9, §10, §11, §12, §13, §14

VRE = experiment: EDTA salt dilution test, MIC/MBC; details: two entries
Procedure: as §4, §5, §6, §7, §8, §9, §10, §11, §12, §13, §14

Pseudomonas aeruginosa = experiment: EDTA salt dilution test, MIC/MBC; details: two entries
Procedure: as §4, §5, §6, §7, §8, §9, §10, §11, §12, §13, §14

S. lentus = experiment: EDTA salt dilution test, MIC/MBC
Procedure: as §4, §5, §6, §7, §8, §9, §10, §11, §12, §13, §14

S. aureus = experiment: EDTA salt dilution test, MIC/MBC; details: five entries, Exhibit A2
Procedure: as §4, §5, §6, §7, §8, §9, §10, §11, §12, §13, §14

S. epidermidis = experiment: EDTA salt dilution test, MIC/MBC; details: two entries
Procedure: as §4, §5, §6, §7, §8, §9, §10, §11, §12, §13, §14

S. capitis = experiment: EDTA salt dilution test, MIC/MBC; details: two entries
Procedure: as §4, §5, §6, §7, §8, §9, §10, §11, §12, §13, §14

C. lucitaniae = experiment: EDTA agar dilution method, yeasts, MIC/MBC; details: Exhibit C
Source text: as §2
Do this until all the media is used up.

Ent. cloacae = experiment: EDTA salt dilution test, MIC/MBC; details: three entries, Exhibit A1
Kleb. oxytoca = experiment: EDTA salt dilution test, MIC/MBC
variety of microbes = experiment: Efficacy of disinfectant salts of EDTA against a number of microbes; details: general statement
Procedure: The Applicant has tested the efficacy of a number of disinfectant salts of EDTA against a number of microbes.
as §4, §5, §6
Next day make up a series of nutrient broths containing a dilution of the appropriate EDTA as in the following list; 0 mg/mL, 0.25 mg/mL, 0.5 mg/mL, 1.0 mg/mL, 1.5 mg/mL, 2.0 mg/mL, 4.0 mg/mL, 6.0 mg/mL, 8.0 mg/mL, 10 mg/mL, 15 mg/mL, 20 mg/mL, 25 mg/mL, 30 mg/ml, 40 mg/mL, 50 mg/mL, 60 mg/mL, 70 mg/mL, 80 mg/mL, 90 mg/mL, 100 mg/mL.
as §7, §8, §9, §10
Next day visually read the MIC's by observing the turbidity of the broths. […]
as §14

Structure (SMILES): N.N.O=C(O)CN(CCN(CC(=O)O)CC(=O)O)CC(=O)O [Diammonium EDTA]
- MIC's, Minimum Inhibitory Concentration (C. tropicalis): 1000 µg/mL
- MIC's, Minimum Inhibitory Concentration (C. guilliermondii): 500 µg/mL
- MIC's, Minimum Inhibitory Concentration (C. parapsilosis): 500 µg/mL
- MIC's, Minimum Inhibitory Concentration (C. glabrata): 500 µg/mL
- MIC's, Minimum Inhibitory Concentration (C. albicans): 500 µg/mL
- MBC, minimum concentration required to kill an entire population (Cornyeform amycolatum; Exhibit A1): 1000 µg/mL
- MIC, minimum concentration required to inhibit growth (Cornyeform amycolatum; Exhibit A2): <500 µg/mL
- MIC, minimum concentration required to inhibit growth (Acinetobacter baumanii): <500 µg/mL
- MBC, minimum concentration required to kill an entire population (Kleb. ornitholytica; Exhibit A1): >10000 µg/mL
- MIC, minimum concentration required to inhibit growth (Kleb. ornitholytica; Exhibit A2): 1000 µg/mL
- MBC, minimum concentration required to kill an entire population (Proteus vulgaris; Exhibit A1): >10000 µg/mL
- MIC, minimum concentration required to inhibit growth (Proteus vulgaris; Exhibit A2): <500 µg/mL
- MBC, minimum concentration required to kill an entire population (Coryneform strait/amy; Exhibit A1): 1000 µg/mL
- MIC, minimum concentration required to inhibit growth (Coryneform strait/amy; Exhibit A2): <500 µg/mL
- MIC, minimum concentration required to inhibit growth (Ent. faeculm; Ent. faecuim, Exhibit A2): <500 µg/mL
- MBC, minimum concentration required to kill an entire population (Ent. faeculm; Ent. faeculm, Exhibit A1): 15000 µg/mL
- MBC, minimum concentration required to kill an entire population (Steno. maltophilia; Exhibit A1): >10000 µg/mL
- MIC, minimum concentration required to inhibit growth (Steno. maltophilia; Exhibit A2): 1000 µg/mL
- MBC, minimum concentration required to kill an entire population (S. xylosus; Exhibit A1): 4000 µg/mL
- MIC, minimum concentration required to inhibit growth (S. xylosus; Exhibit A2): <500 µg/mL
- MBC, minimum concentration required to kill an entire population (Proteus mirabilis; Exhibit A1): >10000 µg/mL
- MIC, minimum concentration required to inhibit growth (Proteus mirabilis; Exhibit A2): <500 µg/mL
- MBC, minimum concentration required to kill an entire population (E. coli): >10000 µg/mL
- MIC, minimum concentration required to inhibit growth (MRSA): 1000 µg/mL
- MBC, minimum concentration required to kill an entire population (S. simulans; Exhibit A1): 10000 µg/mL
- MIC, minimum concentration required to inhibit growth (S. simulans; Exhibit A2): <500 µg/mL
- MBC, minimum concentration required to kill an entire population (Kleb. pnemoniae): >10000 µg/mL
- MBC, minimum concentration required to kill an entire population (Ent. faecalis; Exhibit A1): 15000 µg/mL
- MIC, minimum concentration required to inhibit growth (Ent. faecalis; Exhibit A2): 1000 µg/mL
- MBC, minimum concentration required to kill an entire population (Pseudomonas sp.; Exhibit A1): >10000 µg/mL
- MIC, minimum concentration required to inhibit growth (Pseudomonas sp.; Exhibit A2): <500 µg/mL
- MBC, minimum concentration required to kill an entire population (VRE; Exhibit A1): 15000 µg/mL and >15000 µg/mL
- MIC, minimum concentration required to inhibit growth (VRE; Exhibit A2): <500 µg/mL and 1000 µg/mL
- MBC, minimum concentration required to kill an entire population (Pseudomonas aeruginosa; Exhibit A1): >10000 µg/mL
- MIC, minimum concentration required to inhibit growth (Pseudomonas aeruginosa; Exhibit A2): 1000 µg/mL
- MBC, minimum concentration required to kill an entire population (S. lentus; Exhibit A1): 10000 µg/mL
- MIC, minimum concentration required to inhibit growth (S. lentus; Exhibit A2): <500 µg/mL
- MIC, minimum concentration required to inhibit growth (S. aureus): 1000 µg/mL
- MBC, minimum concentration required to kill an entire population (S. epidermidis; Exhibit A1): 4000 µg/mL and 8000 µg/mL
- MIC, minimum concentration required to inhibit growth (S. epidermidis; Exhibit A2): <500 µg/mL
- MBC, minimum concentration required to kill an entire population (S. capitis; Exhibit A1): 10000 µg/mL and 8000 µg/mL
- MIC, minimum concentration required to inhibit growth (S. capitis; Exhibit A2): <500 µg/mL
- MIC's, Minimum Inhibitory Concentration (C. lucitaniae): 500 µg/mL
- MBC, minimum concentration required to kill an entire population (Ent. cloacae): >10000 µg/mL
- MBC, minimum concentration required to kill an entire population (Kleb. oxytoca; Exhibit A1): >10000 µg/mL
- MIC, minimum concentration required to inhibit growth (Kleb. oxytoca; Exhibit A2): 1000 µg/mL
- anti-microbial (antifungal and antibacterial) properties compared with the disodium salt (variety of microbes): superior to disodium EDTA
